According to patent publication US20120083522A1, “MODULATION OF INFLAMMATORY RESPONSES BY FACTOR XI” (Isis Pharmaceuitcals, inc., priority 2009, published 2012):
In the oligonucleotide strings, read from the 5' end, every base follows the letter of its sugar. An asterisk marks phosphorothioate; unmarked linkages are phosphodiester. Other units and linkages are bracketed, terminal groups are in braces. A string of capitals states the bases alone. e = 2'-O-(2-methoxyethyl) (MOE); [5mC] = 5-methylcytosine; d = 2'-deoxy (DNA)

Legend:
[1] = Tolerability in Sprague-Dawley rats: body and organ weight (Example 19); type: in vivo; settings: 50 mg/kg s.c. twice per week for 6 weeks, change over weight at start of study
Excerpt: (§1) Urine samples were taken before the start of treatment.
The body weights are presented in Table 78 and are expressed as a percent change over the weights taken at the start of the study.

human Factor XI mRNA [2] = assay: Dose-dependent inhibition in cyno primary hepatocytes, electroporation (Example 6); type: cell-based, cynomolgus monkey; settings: approx. 16 h
Method: Cells were plated at a density of 35,000 cells per well and transfected via electroporation with 0.74 nM, 2.2 nM, 6.7 nM, 20 nM, 60 nM, and 180 nM concentrations of antisense oligonucleotide, as specified in Table 13. After a treatment period of approximately 16 hours, RNA was isolated from the cells and human Factor XI mRNA levels were measured by quantitative real-time PCR. Human Factor XI primer probe set RTS 2966 was used to measure mRNA levels. Factor XI mRNA levels were adjusted according to total RNA content, as measured by RIBOGREEN®. Results are presented as percent inhibition of human Factor XI, relative to untreated control cells.

human Factor XI mRNA [3] = assay: Dose-dependent inhibition in HepG2 cells, lipofectin (Example 4); type: cell-based; settings: 16 hours
In short: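 Read-out was percent inhibition of Factor XI mRNA relative to untreated controls, by qRT-PCR (RTS 2966) adjusted for RIBOGREEN-measured total RNA. Cells received antisense oligonucleotide at 9.375 to 75 nM (four levels) via lipofectin. Treatment lasted approximately 16 hours, with plating at 10,000 cells per well.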

[4] = Tolerability in Sprague-Dawley rats: kidney function (Example 19); type: in vivo; settings: Sprague Dawley rats; for urine protein/creatinine ratio, After: after 50 mg/kg s.c. twice per week for 6 weeks; for urine protein/creatinine ratio, Before: before antisense oligonucleotide treatment
Excerpt: as §1

human Factor XI mRNA [5] = assay: Antisense inhibition in HepG2 cells by microwalk gapmers, 8,000 nM, electroporation (Example 14); type: cell-based; settings: HepG2 cells, 8,000 nM
In short: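 Percent reduction of Factor XI transcript, relative to untreated controls, by real-time PCR with RIBOGREEN normalisation. Readout taken about 24 h after electroporating HepG2 cells with 8,000 nM oligonucleotide. Gapmers are 5-10-5, 5-8-5 or 6-8-6 MOE wings, phosphorothioate backbone.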

Substance	Percent change in Body weight [1] [%]	percent inhibition of human Factor XI mRNA (human Factor XI mRNA [2]; 0.74 nM) [%]	percent inhibition of human Factor XI mRNA (human Factor XI mRNA [2]; 2.2 nM) [%]	percent inhibition of human Factor XI mRNA (human Factor XI mRNA [2]; 6.7 nM) [%]	percent inhibition of human Factor XI mRNA (human Factor XI mRNA [2]; 20 nM) [%]	percent inhibition of human Factor XI mRNA (human Factor XI mRNA [2]; 60 nM) [%]	percent inhibition of human Factor XI mRNA (human Factor XI mRNA [2]; 180 nM) [%]	percent inhibition of Factor XI mRNA, relative to untreated control cells (human Factor XI mRNA [3]; 9.375 nM) [%]	percent inhibition of Factor XI mRNA, relative to untreated control cells (human Factor XI mRNA [3]; 18.75 nM) [%]	percent inhibition of Factor XI mRNA, relative to untreated control cells (human Factor XI mRNA [3]; 37.5 nM) [%]	percent inhibition of Factor XI mRNA, relative to untreated control cells (human Factor XI mRNA [3]; 75 nM) [%]	urine protein/creatinine ratio, After [4]	urine protein/creatinine ratio, Before [4]	Percent inhibition of human Factor XI mRNA levels (human Factor XI mRNA [5]) [%]
416825 (antisense GCCCTTCATGTCTAGGTCCA; 5-10-5 gapmer, wing sugar chemistry not given here, further chemistry not given here) [compound 416825]	−18	5	22	51	61	77	84	23	52	73	92	5.4	1.1	90
416838 (antisense GCAACCGGGATGATGAGTGC; 5-10-5 gapmer, wing sugar chemistry not given here, further chemistry not given here) [compound 416838]	−23	0	0	21	34	48	62	31	51	64	86	3.7	1.2	
416850 (antisense TGCACAGTTTCTGGCAGGCC; 5-10-5 gapmer, wing sugar chemistry not given here, further chemistry not given here) [compound 416850]	−33	2	20	24	65	69	67	4	30	67	84	4.0	1.0	91
416858 (antisense ACGGCATTGGTGCACAGTTT; 5-10-5 gapmer, wing sugar chemistry not given here, further chemistry not given here) [compound 416858]	−21	2	13	22	44	63	68	0	28	54	82	4.4	0.9	90
416925 (antisense GGTGCACAGTTTCTGGCAGG; 3-14-3 chimeric gapmer, wing sugar chemistry not given here, further chemistry not given here) [compound 416925]	−32	0	9	1	48	55	76	13	38	59	75	4.3	1.0	
416999 (antisense GCACAGTTTCTGGCAGGCCT; 2-13-5 gapmer, wing sugar chemistry not given here, further chemistry not given here) [compound 416999]	−37	3	40	36	62	67	82	24	37	55	73	9.1	1.3	
417002 (antisense GGTGCACAGTTTCTGGCAGG; 2-13-5 gapmer, wing sugar chemistry not given here, further chemistry not given here) [compound 417002]	−29	32	16	28	38	55	71	35	52	67	70	2.4	1.0	
417003 (antisense TGGTGCACAGTTTCTGGCAG; 2-13-5 gapmer, wing sugar chemistry not given here, further chemistry not given here) [compound 417003]	−40	12	18	19	39	58	74	26	44	60	56	4.8	0.9	
445522 (antisense eG*e[5mC]*eA*e[5mC]*eA*dG*dT*dT*dT*d[5mC]*dT*dG*dG*e[5mC]*eA*eG*eG*e[5mC]) [compound 445522]														91
445531 (antisense eG*eG*e[5mC]*eA*eT*dT*dG*dG*dT*dG*d[5mC]*dA*d[5mC]*eA*eG*eT*eT*eT) [compound 445531]														90
